According to the NIST ThermoML archive (doi:10.1021/je800300x):
± gives the expanded uncertainty stated by the source.

What was measured:
[1] = Crystal; DTA
[2] = Molar enthalpy of transition or fusion; conditions: Crystal; DSC

Normal melting temperature [1]: 112.2 ± 1.1 °C
Molar enthalpy of transition or fusion [2]: 5.4 ± 0.359 kcal/mol
Compound: c1ccc2c(c1)-c1ccccc1-2 [biphenylene]
